{"source": "patent US20180289739A1", "about": "“Combination Therapy for Treating Proliferative Diseases” (BIONOMICS LIMITED, priority 2009, published 2018)", "key": {"[1]": {"test_system": "Human umbilical vein endothelial cells (HUVECs), tumour type activated endothelial cells (Tum)", "test": "Proliferation Assay - Activated Endothelium (MTT)", "format": "cell-based", "details": "for IC50: Homo sapiens, HUVEC, tumour type activated endothelial cells, 48 hrs; for Potency against activated (tumour) versus quiescent (normal) endothelial cells: activated compared with quiescent endothelial cells", "protocol": "Proliferation Assay—Activated Endothelium:\n(§1) Human umbilical vein endothelial cells (CC-2519, Clonetics) were plated at 2500 cells/well in EGM2 (CC-3162, Clonetics) in a 96 well plate in triplicate. Cells were cultured overnight at 37° C. 5% CO2. Medium was subsequently replaced with fresh medium including the compound or negative control. Cells were cultured for a period of 48 hrs. An MTT assay was performed to measure changes in cell numbers. Briefly, 20 μl of MTT reagent was added to cells containing 100 μl of EGM2 and incubated at 37° C. for 2 hours. Absorbance was measured at 492 nm."}, "[2]": {"test_system": "MCF-7", "test": "Growth inhibition of cancer cell line, Sulforhodamine B (SRB) or Systmex cell counting (CC) assay", "format": "cell-based", "details": "Homo sapiens, MCF7, concentration required to inhibit net cell growth by 50%"}, "[3]": {"test_system": "tubulin", "test": "Tubulin polymerisation inhibition", "format": "biochemical"}, "[4]": {"test_system": "Human umbilical vein endothelial cells (HUVECs), normal quiescent type endothelial cells (Norm)", "test": "Proliferation Assay - Quiescent Endothelium (MTT)", "format": "cell-based", "details": "HUVEC, 48 hrs", "protocol": "Proliferation Assay—Quiescent Endothelium:\nas §1, with “15000” for “2500”, “EBM2 (CC-3156, Clonetics)+0.5% FBS (CC-4101A, Clonetics)+GA-1000 (CC-4381A,” for “EGM2 (CC-3162,”, “EBM2+0.5% FBS” for “EGM2”"}, "[5]": {"test_system": "MDA-MB-231 solid orthotopic tumours", "test": "Tumour Growth Inhibition, MDA-MB-231 orthotopic tumours", "format": "in vivo, Balb/c nu/nu mice", "details": "40 mg/kg i.v., two cycles; monitored up to 72 days; vs vehicle, p<0.001 from day 4 to Day 70", "protocol": "Tumour Growth Inhibition:\nBalb/c nu/nu mice bearing MDA-MB-231 solid orthotopic tumours were treated with compound Example 2 at 40 mg/kg. Animals were i.v. dosed with a total of two cycles of Example 2 treatment. Each cycle was dosing on […] followed by a three week no-dosing period. Tumour growth represented as a ratio to initial tumour volume is shown over a total of 72-days.\nTumour growth as well as animal health were monitored for up to 72 days post-day 1 of treatment. […] Significant differences in tumour growth between Example 2 treated (n=64) and vehicle treated (n=20) animals were observed as early as day 4 (p<0.001; unpaired t-test; Prism® analysis) through to Day 70."}}}
{"smiles": "COc1cc(C(=O)c2c(C)oc3c(O)c(OC)ccc23)cc(OC)c1OC", "note": "[Example 1, 2-Methyl-7-hydroxy-3-(3,4,5-trimethoxybenzoyl)-6-methoxybenzofuran]", "values": [{"measurement": "IC50", "setting": "[1]", "result": "0.1 to 1", "unit": "nM"}, {"measurement": "Potency against activated (tumour) versus quiescent (normal) endothelial cells", "setting": "[1]", "result": "high potency towards tumour endothelial cells (activated) over normal endothelial cells (quiescent)"}, {"measurement": "IC50", "setting": "[2]", "result": 2, "unit": "nM"}, {"measurement": "Tubulin polymerisation inhibition", "setting": "[3]", "result": "potent tubulin polymerisation inhibitor"}, {"measurement": "IC50", "setting": "[4]", "result": "10 to 100", "unit": "nM"}]}
{"smiles": "COc1ccc(/C=C\\c2cc(OC)c(OC)c(OC)c2)cc1O", "note": "[Combretastatin A4]", "values": [{"measurement": "Potency against activated (tumour) versus quiescent (normal) endothelial cells", "setting": "[1]", "result": "equally potent against quiescent and activated endothelial cells"}]}
{"smiles": "COc1ccc2c(C(=O)c3cc(OC)c(OC)c(OC)c3)c(Br)oc2c1", "note": "[Comparator D]", "values": [{"measurement": "IC50", "setting": "[1]", "result": "100 to 1000", "unit": "nM"}, {"measurement": "IC50", "setting": "[2]", "result": 500, "unit": "nM"}, {"measurement": "IC50", "setting": "[4]", "result": "100 to 1000", "unit": "nM"}]}
{"smiles": "COc1cc(C(=O)c2c(C)oc3c(OP(=O)([O-])[O-])c(OC)ccc23)cc(OC)c1OC.[Na+].[Na+]", "note": "[Example 2, Disodium 6-methoxy-2-methyl-3-(3,4,5-trimethoxybenzoyl)benzofuran-7-yl Phosphate]", "values": [{"measurement": "Tumour growth (ratio to initial tumour volume)", "setting": "[5]", "result": "clearly show tumour growth inhibition"}]}
{"smiles": "COc1ccc2c(C(=O)c3cc(OC)c(OC)c(OC)c3)coc2c1", "note": "[Comparator C]", "values": [{"measurement": "IC50", "setting": "[1]", "result": "10 to 100", "unit": "nM"}, {"measurement": "IC50", "setting": "[2]", "result": 55, "unit": "nM"}, {"measurement": "IC50", "setting": "[4]", "result": "10 to 100", "unit": "nM"}]}
